Data taken from ChEMBL document CHEMBL1143961, “Synthesis and antiplatelet activity of ethyl 4-(1-benzyl-1H-indazol-3-yl)benzoate (YD-3) derivatives” (Bioorg Med Chem, 2008).

Assays:
Platelet [1] = assay: Inhibition of collagen-induced human platelet aggregation; type: functional, cell-based
Platelet [2] = assay: Inhibition of U46619-induced human platelet aggregation; type: functional, cell-based
Platelet [3] = assay: Inhibition of SFLLRN-induced human platelet aggregation; type: functional, cell-based
Platelet [4] = assay: Inhibition of GYPGKF-induced human platelet aggregation; type: functional, cell-based
Platelet [5] = assay: Inhibition of thrombin-induced human platelet aggregation; type: functional, cell-based
[6] = target: T1, Proteinase-activated receptor 4 (Homo sapiens) (UniProt Q96RI0); assay: Inhibition of PAR4-mediated GYPGKF-induced ATP release in human platelet assessed per 3*10^8 platelets at 1 uM
T1 sequence (whole entry): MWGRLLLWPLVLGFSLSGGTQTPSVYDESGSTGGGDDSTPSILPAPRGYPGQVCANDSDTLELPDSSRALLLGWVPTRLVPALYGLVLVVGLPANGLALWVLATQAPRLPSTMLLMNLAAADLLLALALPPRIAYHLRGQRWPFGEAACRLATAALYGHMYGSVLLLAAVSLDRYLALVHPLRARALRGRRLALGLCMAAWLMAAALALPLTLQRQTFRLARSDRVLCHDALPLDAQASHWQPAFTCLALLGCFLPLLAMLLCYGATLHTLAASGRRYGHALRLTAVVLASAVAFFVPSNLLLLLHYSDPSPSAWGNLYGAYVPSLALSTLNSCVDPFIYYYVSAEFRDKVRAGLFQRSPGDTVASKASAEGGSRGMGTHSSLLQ

Platelet [7] = assay: Inhibition of arachidonic acid-stimulated thromboxane B2 formation in human platelet assessed per 3*10^8 platelets at 5 uM; type: functional
[8] = target: T1, Proteinase-activated receptor 4 (Homo sapiens); assay: Inhibition of PAR4-mediated GYPGKF-induced P-selectin expression in human platelet at 1 uM
[9] = target: T1, Proteinase-activated receptor 4 (Homo sapiens); assay: Inhibition of PAR4-mediated GYPGKF-induced P-selectin expression in human platelet at 5 uM
[10] = target: T1, Proteinase-activated receptor 4 (Homo sapiens); assay: Inhibition of PAR4-mediated GYPGKF-induced ATP release in human platelet assessed per 3*10^8 platelets at 5 uM
Platelet [11] = assay: Inhibition of arachidonic acid-stimulated thromboxane B2 formation in human platelet at 5 uM; type: functional
[12] = target: T1, Proteinase-activated receptor 4 (Homo sapiens); assay: Inhibition of PAR4-mediated GYPGKF-induced P-selectin expression in human platelet at 0.1 uM
[13] = target: T1, Proteinase-activated receptor 4 (Homo sapiens); assay: Inhibition of PAR4-mediated GYPGKF-induced ATP release in human platelet assessed per 3*10^8 platelets at 0.1 uM
[14] = target: T1, Proteinase-activated receptor 4 (Homo sapiens); assay: Inhibition of PAR4-mediated GYPGKF-induced ATP release in human platelet assessed per 3*10^8 platelets at 0.2 uM
[15] = target: T1, Proteinase-activated receptor 4 (Homo sapiens); assay: Inhibition of PAR4-mediated GYPGKF-induced P-selectin expression in human platelet at 0.05 uM

Q: For CCOC(=O)c1ccc(-c2nn(Cc3ccncc3)c3ccccc23)cc1, which IC50 (Platelet [1]) is on record?
A: > 10 µM

Q: What about the IC50 (Platelet [2]) of the same molecule?
A: > 10 µM

Q: What about the IC50 (Platelet [3]) of the same molecule?
A: > 10 µM

Q: And the IC50 (Platelet [4])?
A: 5.63 µM

Q: What about the IC50 (Platelet [5]) of the same molecule?
A: > 10 µM

Q: CCOC(=O)c1ccc(-c2nn(CC)c3ccccc23)cc1 was tested. Which IC50 (Platelet [1]) did it give?
A: > 10 µM

Q: And the IC50 (Platelet [2])?
A: > 10 µM

Q: What about the IC50 (Platelet [3]) of the same molecule?
A: > 10 µM

Q: And the IC50 (Platelet [4])?
A: 0.36 µM

Q: What about the IC50 (Platelet [5]) of the same molecule?
A: > 10 µM

Q: For CNC(=O)c1ccc(-c2nn(Cc3ccccc3)c3ccccc23)cc1, which IC50 (Platelet [1]) is on record?
A: > 10 µM

Q: What about the IC50 (Platelet [2]) of the same molecule?
A: > 10 µM

Q: And the IC50 (Platelet [3])?
A: > 10 µM

Q: What about the IC50 (Platelet [4]) of the same molecule?
A: > 10 µM

Q: And the IC50 (Platelet [5])?
A: > 10 µM

Q: CCOC(=O)c1ccc(-c2nn(Cc3ccccn3)c3ccccc23)cc1 was tested. Which Activity [6] did it give?
A: 3.7 ng

Q: And the IC50 (Platelet [1])?
A: > 10 µM

Q: And the IC50 (Platelet [2])?
A: > 10 µM

Q: What about the IC50 (Platelet [3]) of the same molecule?
A: > 10 µM

Q: And the Activity (Platelet [7])?
A: 1013.7 ng

Q: And the inhibition [8]?
A: 1.2%

Q: What about the IC50 (Platelet [4]) of the same molecule?
A: 0.29 µM

Q: What about the IC50 (Platelet [5]) of the same molecule?
A: > 10 µM

Q: For CCOC(=O)c1ccc(-c2nn(Cc3ccccc3OC)c3ccccc23)cc1, which IC50 (Platelet [1]) is on record?
A: > 10 µM

Q: What about the IC50 (Platelet [2]) of the same molecule?
A: > 10 µM

Q: And the IC50 (Platelet [3])?
A: > 10 µM

Q: What about the IC50 (Platelet [4]) of the same molecule?
A: 0.47 µM

Q: And the IC50 (Platelet [5])?
A: > 10 µM

Q: Which IC50 (Platelet [1]) does the source give for CCOC(=O)c1ccc(-c2nn(-c3ccccc3)c3ccccc23)cc1 here?
A: 4.81 µM

Q: What about the inhibition [9] of the same molecule?
A: 1.6%

Q: And the Activity [10]?
A: 1.8 ng

Q: And the inhibition at 5 µM (Platelet [11])?
A: 98.5%

Q: What about the IC50 (Platelet [2]) of the same molecule?
A: > 10 µM

Q: And the IC50 (Platelet [3])?
A: > 10 µM

Q: And the Activity (Platelet [7])?
A: 24.4 ng

Q: And the IC50 (Platelet [4])?
A: 2.64 µM

Q: What about the IC50 (Platelet [5]) of the same molecule?
A: > 10 µM

Q: Which IC50 (Platelet [1]) does the source give for CCCNC(=O)c1ccc(-c2nn(Cc3ccccc3)c3ccccc23)cc1 here?
A: 9.56 µM

Q: And the IC50 (Platelet [2])?
A: > 10 µM

Q: What about the IC50 (Platelet [3]) of the same molecule?
A: > 10 µM

Q: What about the IC50 (Platelet [4]) of the same molecule?
A: > 10 µM

Q: What about the IC50 (Platelet [5]) of the same molecule?
A: > 10 µM

Q: For O=C(O)c1ccc(-c2nn(Cc3ccccc3)c3ccccc23)cc1, which IC50 (Platelet [1]) is on record?
A: > 10 µM

Q: And the IC50 (Platelet [2])?
A: > 10 µM

Q: What about the IC50 (Platelet [3]) of the same molecule?
A: > 10 µM

Q: What about the IC50 (Platelet [4]) of the same molecule?
A: > 10 µM

Q: And the IC50 (Platelet [5])?
A: > 10 µM

Q: CCOC(=O)c1ccc(-c2nn(Cc3ccccc3)c3ccccc23)cc1 was tested. Which IC50 (Platelet [1]) did it give?
A: > 10 µM

Q: What about the IC50 (Platelet [2]) of the same molecule?
A: > 10 µM

Q: And the inhibition [12]?
A: 7.7%

Q: And the IC50 (Platelet [3])?
A: > 10 µM

Q: What about the Activity [13] of the same molecule?
A: 74.4 ng

Q: What about the Activity [14] of the same molecule?
A: 12.7 ng

Q: And the Activity (Platelet [7])?
A: 1408.3 ng

Q: What about the inhibition [15] of the same molecule?
A: 67.2%

Q: What about the IC50 (Platelet [4]) of the same molecule?
A: 0.13 µM

Q: And the IC50 (Platelet [5])?
A: > 10 µM

Q: CCOC(=O)c1ccc(-c2nn(Cc3cccc(Cl)c3)c3ccccc23)cc1 was tested. Which IC50 (Platelet [1]) did it give?
A: > 10 µM

Q: What about the IC50 (Platelet [2]) of the same molecule?
A: > 10 µM

Q: And the inhibition [12]?
A: 5.2%

Q: And the IC50 (Platelet [3])?
A: > 10 µM

Q: And the Activity [13]?
A: 58.9 ng

Q: And the Activity [14]?
A: 8.9 ng

Q: And the Activity (Platelet [7])?
A: 1368.4 ng

Q: And the inhibition [15]?
A: 39.3%

Q: And the IC50 (Platelet [4])?
A: 0.08 µM

Q: And the IC50 (Platelet [5])?
A: > 10 µM

Q: What does the source list for CCCOC(=O)c1ccc(-c2nn(Cc3ccccc3)c3ccccc23)cc1?
A: IC50 (Platelet [1]): > 10 µM; IC50 (Platelet [2]): > 10 µM; IC50 (Platelet [3]): > 10 µM; IC50 (Platelet [4]): > 10 µM; IC50 (Platelet [5]): > 10 µM

Q: With CCOC(=O)c1ccc(-c2nn(Cc3ccc(Cl)cc3)c3ccccc23)cc1 as the molecule, how does the IC50 (Platelet [1]) read?
A: > 10 µM

Q: And the IC50 (Platelet [2])?
A: > 10 µM

Q: What about the IC50 (Platelet [3]) of the same molecule?
A: > 10 µM

Q: And the IC50 (Platelet [4])?
A: 0.12 µM

Q: And the IC50 (Platelet [5])?
A: > 10 µM

Q: Which IC50 (Platelet [1]) does the source give for NC(=O)c1ccc(-c2nn(Cc3ccccc3)c3ccccc23)cc1 here?
A: > 10 µM

Q: What about the IC50 (Platelet [2]) of the same molecule?
A: > 10 µM

Q: And the IC50 (Platelet [3])?
A: > 10 µM

Q: What about the IC50 (Platelet [4]) of the same molecule?
A: > 10 µM

Q: What about the IC50 (Platelet [5]) of the same molecule?
A: > 10 µM

Q: How did the IC50 (Platelet [1]) turn out when CCOC(=O)c1ccc(-c2c3ccccc3nn2Cc2ccccc2)cc1 was run?
A: > 10 µM

Q: And the IC50 (Platelet [2])?
A: > 10 µM

Q: And the IC50 (Platelet [3])?
A: > 10 µM

Q: What about the IC50 (Platelet [4]) of the same molecule?
A: > 10 µM

Q: What about the IC50 (Platelet [5]) of the same molecule?
A: > 10 µM

Q: Which results are given for CCOC(=O)c1ccc(-c2nn(Cc3ccco3)c3ccccc23)cc1?
A: IC50 (Platelet [1]): > 10 µM; IC50 (Platelet [2]): > 10 µM; IC50 (Platelet [3]): > 10 µM; IC50 (Platelet [4]): 0.34 µM; IC50 (Platelet [5]): > 10 µM

Q: For CCCCn1nc(-c2ccc(C(=O)OCC)cc2)c2ccccc21, which IC50 (Platelet [1]) is on record?
A: > 10 µM

Q: And the IC50 (Platelet [2])?
A: > 10 µM

Q: And the IC50 (Platelet [3])?
A: > 10 µM

Q: And the IC50 (Platelet [4])?
A: 0.67 µM

Q: And the IC50 (Platelet [5])?
A: > 10 µM

Q: For CCOC(=O)c1ccc(-c2nn(Cc3cccnc3)c3ccccc23)cc1, which IC50 (Platelet [1]) is on record?
A: > 10 µM

Q: What about the IC50 (Platelet [2]) of the same molecule?
A: > 10 µM

Q: What about the IC50 (Platelet [3]) of the same molecule?
A: > 10 µM

Q: And the IC50 (Platelet [4])?
A: 5.55 µM

Q: What about the IC50 (Platelet [5]) of the same molecule?
A: > 10 µM

Q: For CC(C)NC(=O)c1ccc(-c2nn(Cc3ccccc3)c3ccccc23)cc1, which IC50 (Platelet [1]) is on record?
A: > 10 µM

Q: What about the IC50 (Platelet [2]) of the same molecule?
A: > 10 µM

Q: What about the IC50 (Platelet [3]) of the same molecule?
A: > 10 µM

Q: What about the IC50 (Platelet [4]) of the same molecule?
A: > 10 µM

Q: And the IC50 (Platelet [5])?
A: > 10 µM
